From article PMC6934184, “Selective DNA-PKcs inhibition extends the therapeutic index of localized radiotherapy and chemotherapy” (The Journal of Clinical Investigation, 2019)

Target: T1, SGK (SGK1) (Homo sapiens, UniProt O00141)
T1 construct: purchased Thermo Fisher Scientific (Life Technologies) SelectScreen
Test: SelectScreen Z'LYTE
Type: biochemical
How it was run: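 Percent values come from Thermo SelectScreen profiling of NU5455, combining activity and binding assays. CSF1R was run in Z'LYTE format at Km app ATP, and CAMK1 in Adapta format with ATP listed at 10.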

T1 sequence (O00141 whole entry): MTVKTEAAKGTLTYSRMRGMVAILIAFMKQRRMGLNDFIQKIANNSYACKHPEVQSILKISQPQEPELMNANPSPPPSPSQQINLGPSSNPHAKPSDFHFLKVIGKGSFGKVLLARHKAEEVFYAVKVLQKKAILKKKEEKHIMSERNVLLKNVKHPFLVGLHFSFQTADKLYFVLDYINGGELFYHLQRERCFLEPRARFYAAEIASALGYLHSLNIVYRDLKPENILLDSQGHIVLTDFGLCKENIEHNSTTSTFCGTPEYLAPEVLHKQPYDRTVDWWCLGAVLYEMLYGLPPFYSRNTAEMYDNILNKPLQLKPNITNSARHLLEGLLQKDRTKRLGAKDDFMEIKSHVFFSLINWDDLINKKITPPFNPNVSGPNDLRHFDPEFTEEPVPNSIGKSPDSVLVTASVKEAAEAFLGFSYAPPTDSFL

With `CN(C(=O)CN1CCOCC1)c1ccc2sc3c(-c4cccc5c(=O)cc(N6CC7CCC(C6)O7)oc45)cccc3c2c1` [NU5455] the inhibition at 1 µM was 8.5%.
